Source: patent publication US20180290964A1, “CRYSTALLINE SOLID FORMS OF THE ACETATE SALT OF (1S,3S,4R)-4-((3AS,4R,5S,7AS)-4-(AMINOMETHYL)-7A-METHYL-1-METHYLENEOCTAHYDRO-1H-INDEN-5-YL)-3-(HYDROXYMETHYL)-4-METHYLCYCLOHEXANOL” (Aquinox Pharmaceuticals (Canada) Inc., priority 2015, published 2018)
“Also recorded” adds a separate entry of the source.

Tests used:
[1] = Handling in the presence of water (Example 8, methanol/water 60/40), form checked by XRPD; type: physicochemical; settings: handled in the presence of water, 40% water (Example 8)
Procedure: 20.0 mg of amorphous Compound 1 was solid dosed in a 1.8 mL vial and 100 μL of a methanol/water mixture (60/40 (v/v)) was added at ambient temperature. The solution was subjected to a temperature profile of heating and cooling between 50° C. and 5° C. for three cycles, each heating cycle was at 10° C./hr while the cooling cycles were at −20° C./hr, −10° C./hr and −5° C./hr, for each cycle, respectively, finishing at ambient temperature. During the entire experiment the mixture was stirred at 30 rpm using a magnetic stirrer and a TEFLON®-coated magnetic stirring bar with dimensions 7mm in length and 2 mm in width.
Upon completion of the thermo-profile, the solid was collected by centrifugation (3000 rpm for 10 minutes) followed by solvent mixture removal by Pasteur pipette and dried under ambient conditions for one hour, before being analyzed by XRPD.

[2] = Accelerated aging analysis by XRPD (Method J); type: physicochemical; settings: 40° C. and 75% relative humidity for 48 hours (2 days)
Procedure: Samples collected from the crystallization conditions were subjected, as is, to accelerated aging conditions of 40° C. and 75% relative humidity for 48 hours, via standard methods and analyzed by XRPD.
Dry solid samples from Examples 1 and 2, were transferred into a boron-glass capillary with 0.3 mm outer diameter. The capillary was mounted on the goniometer head and placed in the D8 Advance Bruker-AXS Diffractometer equipped with solid state LynxEye detector. The capillary was spinning during data recording, at 15 rpm. The XRPD platform was calibrated using Silver Behenate for the long d-spacings and Corundum for the short d spacings.
Data collection for Compound 1 Form A and Compound 1 Form B, were carried out, in transmission mode, at ambient conditions (˜23° C. and ˜100 kPa) using monochromatic CuKα1 radiation (1.54056 Å) in the 2Θ region between 4° and 45°, with an exposure time of 90 s for each frame and 0.016° increments. No additional corrections were made during data collection.

C=C1CC[C@H]2[C@H](CN)[C@@H]([C@@]3(C)CC[C@H](O)C[C@@H]3CO)CC[C@]12C.CC(=O)O [Compound 1 Form A, acetate salt of (1S,3S,4R)-4-((3aS,4R,5S,7aS)-4-(aminomethyl)-7a-methyl-1-methyleneoctahydro-1H-inden-5-yl)-3-(hydroxymethyl)-4-methylcyclohexanol]
Stability to exposure to water / hydrate formation (XRPD) [1]: resistant to hydrate formation | Solid form stability after accelerated aging (XRPD diffractogram versus FIG. 2) [2]: equivalent to FIG. 2; also recorded: without converting to another form
